The record followed here is ChEMBL document CHEMBL5338725, “New Glucosamine-Based TLR4 Agonists: Design, Synthesis, Mechanism of Action, and In Vivo Activity as Vaccine Adjuvants” (J Med Chem, 2023).

Molecules are shown by their SMILES. The source made the active and inactive calls. The calls are words filed in the database; no cut-off is given here.

Data set [1] relates to Mus musculus. In words: Immuno-adjuvant activity in OVA immunized C57BL/6J mouse model assessed as increase in anti-OVA IgG2c antibody at 10 ug, sc administered on day 0 and as booster dose on day 21 and measured after 42 days by ELISA. It counts as functional, organism-based. As to conditions: dose 10.0 µg, time 42.0 day. On the technique in general: In an ELISA, binding on a coated surface is turned into a signal by an enzyme label.

Data set [2] deals with HEK-Blue hTLR4. In words: Agonist activity at human TLR4 in HEK-Blue hTLR4 cells at 100 ng/ml incubated for 18 hrs by SEAP reporter gene based Quanti-blue assay. The format is cell-based. As to conditions: filed as agonist.
Data set [3] concerns Mus musculus. In words: Immuno-adjuvant activity in OVA immunized C57BL/6J mouse model assessed as increase in anti-OVA IgG2b antibody at 10 ug, sc administered on day 0 and as booster dose on day 21 and measured after 42 days by ELISA. The format is functional, organism-based. To be noted: dose 10.0 µg, time 42.0 day.
In data set [4] the test system is PBMC. In words: Cytotoxicity against human PBMC cells assessed as reduction in cell viability at 0.1 to 25 uM incubated for 18 hrs by MTT assay. As to conditions: dose 0.1-25 µM. It counts as toxicity, cell-based.
Data set [5] can be described thus: Cytotoxicity against PMA-differentiated human THP1-Xblue cells assessed as reduction in cell viability at 0.1 to 25 uM incubated for 18 hrs by MTT assay. The format is toxicity, cell-based. To be noted: dose 0.1-25 µM. (In general: Tetrazolium assays rely on reduction of a dye to a coloured formazan, in cell work by metabolically active cells.)
In data set [6] the target is Toll-like receptor 4 (Homo sapiens) (UniProt O00206). In words: Activation of TLR4 in PMA-differentiated human THP1-Xblue cells assessed as induction of IL-1beta release incubated for 6 hrs by ELISA method. It counts as cell-based. To be noted: filed as activator, dose 0.1-25 µM.
Toll-like receptor 4 (Homo sapiens), sequence (O00206 whole entry): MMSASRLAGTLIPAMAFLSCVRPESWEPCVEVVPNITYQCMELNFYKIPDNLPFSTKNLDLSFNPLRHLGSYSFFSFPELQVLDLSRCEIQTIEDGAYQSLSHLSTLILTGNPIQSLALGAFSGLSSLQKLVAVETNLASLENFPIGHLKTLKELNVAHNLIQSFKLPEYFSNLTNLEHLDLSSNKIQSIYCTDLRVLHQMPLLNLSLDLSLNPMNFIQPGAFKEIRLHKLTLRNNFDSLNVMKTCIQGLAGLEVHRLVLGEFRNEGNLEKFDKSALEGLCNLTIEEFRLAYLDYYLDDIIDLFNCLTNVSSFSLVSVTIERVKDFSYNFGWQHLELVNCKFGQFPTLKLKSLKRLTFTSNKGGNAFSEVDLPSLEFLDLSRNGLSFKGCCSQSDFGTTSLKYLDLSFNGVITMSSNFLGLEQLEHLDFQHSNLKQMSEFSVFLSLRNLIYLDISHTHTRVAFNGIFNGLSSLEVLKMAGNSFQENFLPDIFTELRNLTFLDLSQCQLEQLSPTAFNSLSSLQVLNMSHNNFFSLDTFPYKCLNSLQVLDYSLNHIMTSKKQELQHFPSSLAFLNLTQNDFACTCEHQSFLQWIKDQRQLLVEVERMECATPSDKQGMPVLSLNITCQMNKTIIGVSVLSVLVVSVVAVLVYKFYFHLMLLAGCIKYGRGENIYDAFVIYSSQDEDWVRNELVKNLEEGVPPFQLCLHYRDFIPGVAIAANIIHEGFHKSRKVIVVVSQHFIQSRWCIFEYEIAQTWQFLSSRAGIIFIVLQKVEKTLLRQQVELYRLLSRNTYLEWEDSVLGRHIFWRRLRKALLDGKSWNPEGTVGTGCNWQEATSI
For data set [7] the target is unchanged. In words: Activation of TLR4 in PMA-differentiated human THP1-Xblue cells assessed as induction of TNFalpha release at 25 uM incubated for 6 hrs by ELISA method. It counts as cell-based. To be noted: filed as activator.
The target is the same in data set [8]. In words: Activation of TLR4 in PMA-differentiated human THP1-Xblue cells assessed as induction of IL-6 secretion at 0.1 to 25 uM by incubated for 6 hrs ELISA method. The format is cell-based. To be noted: dose 0.1-25 µM.
Data set [9] has the same target. In words: Agonist activity at TLR4 in human PBMC assessed as induction of IL-1beta production incubated for 6 hrs by ELISA method. The format is cell-based. As to conditions: filed as agonist, dose 10-25 µM.
The target is the same in data set [10]. In words: Agonist activity at TLR4 in human PBMC assessed as induction of TNF production incubated for 6 hrs by ELISA method. To be noted: filed as agonist, dose 10-25 µM. It counts as cell-based.
Data set [11] has the same target. In words: Agonist activity at human TLR4 in HEK-Blue hTLR4 cells at 0.1 to 25 uM incubated for 18 hrs by SEAP reporter gene based Quanti-blue assay. The format is cell-based. As to conditions: filed as agonist, dose 0.1-25 µM. (In a reporter assay the amount or activity of a reporter protein is the signal.)
The test system of data set [12] is Mus musculus. In words: Immuno-adjuvant activity in OVA immunized C57BL/6J mouse model assessed as anti-OVA […] antibody production at 10 ug, sc administered on day 0 and as booster dose on day 21 and measured after 42 days by ELISA. The format is functional, organism-based. As to conditions: dose 10.0 µg, time 42.0 day.
Data set [13] relates to Mus musculus. In words: Immuno-adjuvant activity in OVA immunized C57BL/6J mouse model assessed as increase in anti-OVA IgG1 antibody at 10 ug, sc administered on day 0 and as booster dose on day 21 and measured after 42 days by ELISA. To be noted: dose 10.0 µg, time 42.0 day. It counts as functional, organism-based.
In data set [14] the test system is THP1-Xblue. In words: Activation of NF-KappaB/AP-1 signalling pathway in PMA-differentiated human THP-1 X-blue cells assessed as induction of SEAP release at 0.1 to 25 uM incubated for 18 hrs by QUANTI-Blue assay. The format is cell-based. To be noted: dose 0.1-25 µM.
Data set [15] deals with RAW-Blue. In words: Activation of NF-kappaB/AP-1 transcriptional activity in mouse RAW-Blue cells at 0.1 uM incubated for 18 hrs by quanti-blue/SEAP-based spectrophotometry analysis. It counts as cell-based. To be noted: filed as activator.
The subject of data set [16] is THP1-Xblue. In words: Activation of […] in PMA-differentiated human THP1-Xblue cells assessed as p-IRF3 translocation from cytosol to nucleus at 25 uM measured after 2 to 4 hrs by immunofluorescence analysis. The format is cell-based. As to conditions: time 2-4 hrs.
Data set [17] concerns the target NACHT, LRR and PYD domains-containing protein 3 (Homo sapiens) (UniProt Q96P20). In words: Activation of NLRP3 inflammasome in PMA-differentiated human THP1-Xblue cells assessed as IL-1beta production at 25 uM preincubated for 1 hr with MCC950 followed by compound addition and measured after 6 hrs by ELISA method. It counts as cell-based.
Data set [18] addresses MAP kinase p38 (Homo sapiens) (UniProt O15264+Q15759+Q16539+P53778). In words: Activation of p38 MAPK phosphorylation in PMA-differentiated human THP1-Xblue cells at 25 uM incubated for 1.5 to 2.5 hrs by Western blot analysis. The format is cell-based. To be noted: filed as activator, time 1.5-2.5 hrs.
Data set [19] addresses Toll-like receptor 4 (Homo sapiens) (UniProt O00206). In words: Activation of TLR4 in PMA-differentiated human THP1-Xblue cells assessed as induction of IL-1beta release at 25 uM by incubated for 6 hrs ELISA method. As to conditions: filed as activator. The format is cell-based.
In data set [20] the test system is Mus musculus. In words: Immuno-adjuvant activity in OVA immunized C57BL/6J mouse model assessed as increase in anti-OVA IgG antibody at 10 ug, sc administered on day 0 and as booster dose on day 21 and measured on day 42 by ELISA. It counts as functional, organism-based. To be noted: dose 10.0 µg.
Data set [21] relates to THP1-Xblue. In words: Activation of NF-kappaB pathway in PMA-differentiated human THP1-Xblue cells assessed p65 translocation from cytosol to nucleus at 25 uM incubated for 4 hrs by immunofluorescence analysis. The format is cell-based.
For data set [22], the system named is THP1-Xblue. In words: Activation of NF-kappaB/AP-1 transcriptional activity in human THP1-Xblue cells at 10 uM incubated for 18 hrs by quanti-blue/SEAP-based spectrophotometry analysis. To be noted: filed as activator. The format is cell-based.

NACHT, LRR and PYD domains-containing protein 3 (Homo sapiens), sequence (Q96P20 whole entry, the tested form may be a part): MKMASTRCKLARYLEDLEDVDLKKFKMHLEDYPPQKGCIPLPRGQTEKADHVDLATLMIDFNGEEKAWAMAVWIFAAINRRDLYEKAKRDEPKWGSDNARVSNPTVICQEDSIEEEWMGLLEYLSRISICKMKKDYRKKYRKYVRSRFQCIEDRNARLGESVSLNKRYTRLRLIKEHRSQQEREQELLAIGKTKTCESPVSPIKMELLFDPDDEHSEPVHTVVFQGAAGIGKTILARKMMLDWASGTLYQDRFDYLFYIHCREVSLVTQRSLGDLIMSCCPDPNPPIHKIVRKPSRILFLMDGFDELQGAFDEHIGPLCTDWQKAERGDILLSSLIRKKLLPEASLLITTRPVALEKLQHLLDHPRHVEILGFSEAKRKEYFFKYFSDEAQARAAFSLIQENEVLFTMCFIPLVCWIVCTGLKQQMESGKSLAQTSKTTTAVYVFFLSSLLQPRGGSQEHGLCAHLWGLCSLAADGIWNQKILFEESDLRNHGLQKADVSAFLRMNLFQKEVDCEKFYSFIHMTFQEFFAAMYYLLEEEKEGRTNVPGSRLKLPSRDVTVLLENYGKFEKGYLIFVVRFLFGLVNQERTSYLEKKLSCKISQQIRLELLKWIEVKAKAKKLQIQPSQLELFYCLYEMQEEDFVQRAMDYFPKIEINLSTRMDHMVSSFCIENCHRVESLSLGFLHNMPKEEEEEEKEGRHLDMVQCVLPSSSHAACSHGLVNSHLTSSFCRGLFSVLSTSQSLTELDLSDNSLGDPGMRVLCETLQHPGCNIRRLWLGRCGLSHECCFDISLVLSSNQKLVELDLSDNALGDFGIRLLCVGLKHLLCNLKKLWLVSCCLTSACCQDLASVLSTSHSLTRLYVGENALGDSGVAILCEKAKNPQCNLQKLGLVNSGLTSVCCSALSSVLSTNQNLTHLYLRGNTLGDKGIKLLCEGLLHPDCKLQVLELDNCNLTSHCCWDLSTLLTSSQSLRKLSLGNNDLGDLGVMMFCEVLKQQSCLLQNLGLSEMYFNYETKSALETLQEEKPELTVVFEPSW

As to `CCCCCCCCCCCCCC(=O)O[C@H](CCCCCCCCCCC)CC(=O)N[C@H]1[C@H](OC[C@H]2O[C@H](O)[C@H](NC(=O)C[C@H](O)CCCCCCCCCCC)[C@@H](OC(=O)C[C@H](O)CCCCCCCCCCC)[C@@H]2O)O[C@H](CO)[C@@H](OP(=O)(O)O)[C@@H]1OC(=O)C[C@@H](CCCCCCCCCCC)OC(=O)CCCCCCCCCCCCC`, the outcome in [1] and in data set [2] was Active. Besides, the outcome in data set [3] was inactive.

With `CCCCCCCCCCCCCC(=O)O[C@@H]1O[C@H](CO)[C@@H](OP(=O)([O-])[O-])[C@H](OC(=O)CCCCCCCCCCCCC)[C@H]1NC(=O)CCCCCCCCCCC.[Na+].[Na+]`, the Activity result in data set [4] was “Non-Toxic”; in data set [5], “Non-Toxic”; in [6], “Dose-Dependent Effect”; in [9], “Dose-Dependent Effect”; in data set [10], “Dose-Dependent Effect”. Moreover, the result in data set [7] and in data set [11] was Active. In addition, the outcome in [8] was inactive.

For the compound `CCCCCCCCCCCCCC(=O)N[C@H]1[C@H](OC(=O)CCCCCCCCCCCCC)O[C@H](CO)[C@@H](OP(=O)([O-])[O-])[C@@H]1OC(=O)CCCCCCCCCCCCC.[Na+].[Na+]`, the Activity result in [5] was “Non-Toxic”. Moreover, the result in data set [11] was Active.

With `CCCCCCCCCCCC(=O)N[C@H]1[C@@H](OP(=O)(O)O)O[C@H](CO)[C@@H](OC(=O)CCCCCCCCCCC)[C@@H]1OC(=O)CCCCCCCCCCC`, the outcome in [1], in data set [12], in data set [13] and in [3] was inactive.

As for `CCCCCCCCCCCC(=O)N[C@H]1[C@@H](OC(=O)CCCCCCCCCCC)O[C@H](CO)[C@@H](OP(=O)(O)O)[C@@H]1OC(=O)CCCCCCCCCCC`, the outcome in data set [14] was inactive.

Consider `CCCCCCCCCCCC(=O)N[C@H]1[C@H](OC(=O)CCCCCCCCCCC)O[C@H](CO)[C@@H](OP(=O)([O-])[O-])[C@@H]1OC(=O)CCCCCCCCCCC.[Na+].[Na+]`, for which the Activity result in [4] is “Non-Toxic”; in data set [6], “Dose-Dependent Effect”; in [9] it was “Dose-Dependent Effect”; in data set [10] it was “Dose-Dependent Effect”. The result in data set [15], in data set [7], in data set [13], in data set [18], in data set [19] and in [20] was Active. Besides, the outcome in [22] and in [11] was Active. The outcome in [8], in data set [16], in data set [12], in data set [17], in data set [3] and in data set [21] was inactive.

In the case of `CCCCCCCCCCCC(=O)N[C@H]1[C@H](OC(=O)CCCCCCCCC)O[C@H](CO)[C@@H](OP(=O)([O-])[O-])[C@@H]1OC(=O)CCCCCCCCC.[Na+].[Na+]`, the Activity entry in [5] is listed as “Non-Toxic”. In addition, in data set [11], the result was Active.
